Source: the NIST ThermoML archive (doi:10.1021/je060271a)

Conditions: 323.15 K, Liquid, Vibrating tube method

CCCCC(=O)OCC(COC(=O)CCCC)(COC(=O)CCCC)COC(=O)CCCC [pentaerythritol tetrapentanoate]
Conditions | mass density [kg/m3]
2620 kPa | 996.4
2660.6 kPa | 996.5
2696.9 kPa | 996.5
2718.7 kPa | 996.6
2740.2 kPa | 996.6
2766.8 kPa | 996.6
2789.3 kPa | 996.7
2812.2 kPa | 996.6
2835.1 kPa | 996.5
2863.3 kPa | 996.6
2886.9 kPa | 996.7
2911 kPa | 996.7
2989.9 kPa | 996.7
3015.4 kPa | 996.6
3041 kPa | 996.8
3072.2 kPa | 996.8
3098.9 kPa | 996.7
3127.4 kPa | 996.8
3156.2 kPa | 996.9
3188.1 kPa | 996.9
3211.7 kPa | 996.9
3262.5 kPa | 996.8
3273.9 kPa | 997
3286 kPa | 997.1
3299.4 kPa | 997
3310.7 kPa | 996.9
3322.8 kPa | 997
3337.8 kPa | 996.9
3347.6 kPa | 997
3361.4 kPa | 997.1
3373 kPa | 997
3399.5 kPa | 997
3411.5 kPa | 997.1
3423.8 kPa | 997.1
3438.5 kPa | 997.1
3453.3 kPa | 997.1
3522.2 kPa | 997
3637.3 kPa | 997.2
3714.9 kPa | 997.3
3733.1 kPa | 997.2
3751.4 kPa | 997.3
3769.8 kPa | 997.4
3791.1 kPa | 997.3
3809.5 kPa | 997.4
3828.4 kPa | 997.3
3846.7 kPa | 997.3
3869.1 kPa | 997.3
3887.6 kPa | 997.3
3909.9 kPa | 997.3
3929 kPa | 997.5
3947.9 kPa | 997.4
3967.4 kPa | 997.4
3987.2 kPa | 997.5
4010 kPa | 997.4
4029.3 kPa | 997.5
4049 kPa | 997.5
4072.7 kPa | 997.4
4092.3 kPa | 997.5
4112.7 kPa | 997.6
4137.3 kPa | 997.5
4158.1 kPa | 997.5
4179.1 kPa | 997.6
4200.2 kPa | 997.6
4225 kPa | 997.6
4246.8 kPa | 997.7
4268.4 kPa | 997.5
4290.2 kPa | 997.6
4316 kPa | 997.7
4337.7 kPa | 997.6
4359.8 kPa | 997.7
4382.3 kPa | 997.8
4409 kPa | 997.7
4431.7 kPa | 997.7
4454.9 kPa | 997.7
4478.1 kPa | 997.8
4506.5 kPa | 997.9
4529.8 kPa | 997.9
4554.2 kPa | 997.9
4579 kPa | 997.8
4607.9 kPa | 998
4632.1 kPa | 997.9
4657.2 kPa | 998
4688.4 kPa | 997.9
4714.7 kPa | 997.9
4741.5 kPa | 998
4773.2 kPa | 998
4800.4 kPa | 998
4827.4 kPa | 998
4855.4 kPa | 997.9
4889.5 kPa | 998.1
4918.2 kPa | 998.1
4946.4 kPa | 998.1
4975.1 kPa | 998.2
4978.1 kPa | 998.3
4995.6 kPa | 998.2
4997.5 kPa | 998.3
5038.8 kPa | 998.1
5039.2 kPa | 998.3
5039.4 kPa | 998.2
5040 kPa | 998.2
5040.7 kPa | 998.2
5041.6 kPa | 998.2
5042.1 kPa | 998.1
5042.6 kPa | 998.2
5044 kPa | 998.2
5052.3 kPa | 998.3
5059.4 kPa | 998.3
5066.5 kPa | 998.4
5073.8 kPa | 998.2
5082.4 kPa | 998.2
5089.7 kPa | 998.2
5097 kPa | 998.3
5105.8 kPa | 998.3
5113.1 kPa | 998.3
5120.5 kPa | 998.3
5128 kPa | 998.3
5134.7 kPa | 998.4
5142.3 kPa | 998.3
5150.8 kPa | 998.3
5158.4 kPa | 998.2
5166.2 kPa | 998.2
5174.9 kPa | 998.3
5182.5 kPa | 998.3
5189.9 kPa | 998.3
5197.3 kPa | 998.3
5206 kPa | 998.3
5213.8 kPa | 998.3
5221.7 kPa | 998.3
5229.5 kPa | 998.3
5238.5 kPa | 998.5
5246.1 kPa | 998.3
5254.1 kPa | 998.4
5261.5 kPa | 998.4
5270.5 kPa | 998.3
5278.7 kPa | 998.4
5287.8 kPa | 998.4
5295.3 kPa | 998.4
5303 kPa | 998.5
5312.6 kPa | 998.3
5320.7 kPa | 998.4
5329.2 kPa | 998.5
5336.8 kPa | 998.3
5345.1 kPa | 998.5
5352.9 kPa | 998.5
5362.7 kPa | 998.5
5370.9 kPa | 998.4
5379 kPa | 998.5
5388.7 kPa | 998.4
5397.1 kPa | 998.5
5405.1 kPa | 998.5
5413.1 kPa | 998.3
5422.9 kPa | 998.5
5431 kPa | 998.5
5439.2 kPa | 998.5
5449.6 kPa | 998.4
5457.5 kPa | 998.4
5465.6 kPa | 998.5
5473.9 kPa | 998.4
5483.8 kPa | 998.6
5491.6 kPa | 998.5
5499.5 kPa | 998.6
